Experimental data as given in PMC8023582 (ACS Chemical Biology, 2021).

Biological target: T1, RORα (Homo sapiens, UniProt P35398)
T1 sequence (P35398 272-510 limits assumed): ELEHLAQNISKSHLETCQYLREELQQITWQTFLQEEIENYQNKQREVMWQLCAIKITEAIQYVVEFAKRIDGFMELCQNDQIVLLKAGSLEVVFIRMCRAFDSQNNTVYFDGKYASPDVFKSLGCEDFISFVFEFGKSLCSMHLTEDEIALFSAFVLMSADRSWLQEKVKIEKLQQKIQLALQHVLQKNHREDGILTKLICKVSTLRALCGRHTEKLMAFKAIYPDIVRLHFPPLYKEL
Test: TR-FRET coactivator recruitment assay on RORα
Assay type: biochemical
Conditions: read-out: RORα: cofactor recruitment IC50; Figure 3B

## CC(C)CCC[C@@H](C)[C@H]1CC[C@H]2[C@@H]3CC=C4C[C@@H](OS(=O)(=O)O)CC[C@]4(C)[C@H]3CC[C@]12C [Chol-SO4, sulfated cholesterol]
  IC50: 190 ± 50 nM
